Measurements: patent publication US7927600B2, “Anti-allergic pharmaceutical composition containing at least one allergen and at least one antihistamine compound” (priority 2001, dated 2011)

Tested on: allergic patients
Assay: Example 4: adverse effects
Format: in vivo, human
Conditions: patients of Example 4

In the case of `CCOc1c(N)c2c(c(OCC)c1OCC)C(C1c3c(cc4c(c3OC)OCO4)CCN1C)OC2=O` (stereo not shown) [Hypostamine, tritoqualine], the “Adverse Effects, Conclusion (frequency)” value is reported as “Very rare”.
